Legend:
[1] = test system: wild-type LRRK2 overexpressing cells; test: Process length in wild-type LRRK2 overexpressing primary cortical neurons; assay type: cell-based, rat; conditions: 10 μM
Source text: FIGS. 8A-8B. […] N=25 for each group. […] N=10 for each group.
Cell Culture and Transfection.

[2] = test system: PD-associated LRRK2 mutant; test: Formation of LC3-GFP labeled aggregates in neurites / PD-associated LRRK2 pathology; assay type: cell-based
Source text: A method is disclosed for treating a neurodegenerative disease, for example, Parkinson's Disease associated with a mutant of leucine-rich repeat kinase-2 (LRRK2), with NMDA antagonists. The methods include assessing accumulation of LC3-GFP labeled aggregates. The methods may be carried out on primary neurons in vitro in a cell culture, or in vivo in an animal. In one embodiment, the cell is a post-mitotic neuron. In another embodiment, the post-mitotic neuron is a cortical neuron, a dopamine neuron, or a sympathetic neuron.
Mutations in LRRK2 underlie an autosomal dominant, inherited form of Parkinson's disease (PD) that mimics all of the clinical features of the common sporadic form of PD. The LRRK2 protein includes putative GTPase, protein kinase, WD40 repeat, and leucine rich repeat (LRR) domains of unknown function.

Compound | process length in wild-type LRRK2 overexpressing cells [1] | PD-associated LRRK2 pathology [2] | formation of LC3-GFP labeled aggregates in neurites [2]
Oc1ccc(O)cc1 [hydroquinone] | do not alter process length |  | 
N[C@@H](CCC(=O)N[C@@H](CS)C(=O)NCC(=O)O)C(=O)O [glutathione] | do not alter process length |  | 
Nc1ccccc1C(=O)CC(N)C(=O)O (stereo not shown) [kynurenine] | do not alter process length |  | 
O=c1c(-c2cccc(Oc3ccccc3)c2)c(O)[nH]c2cc(Cl)ccc12 [L-701,324, 7-chloro-2-hydroxy-3-[3-(phenoxy)phenyl]-1H-quinolin-4-one] |  | ameliorated | ameliorated
O=C1CC(c2ccccc2)Oc2ccccc21 (stereo not shown) [flavanone] | do not alter process length |  | 
NC1(C(=O)O)CCC1 [1-aminocyclobutane carboxylic acid] | do not alter process length |  | 

Reference: US20090004112A1, “METHODS FOR THE TREATMENT OF NEURODEGENERATIVE DISEASES USING NMDA RECEPTOR GLYCINE SITE ANTAGONISTS” (THE TRUSTEES OF COLUMBIA UNIVERSITY IN THE CITY OF NEW YORK, priority 2006, published 2009)
